Measurements as given in patent US7723068B2, “Gene cluster involved in safracin biosynthesis and its uses for genetic engineering” (PharmaMar, S.A., priority 2002, dated 2010).

Tests used:
[1] = Antibacterial and antitumoral activities, general statements; details: compared with safracin A / safracin B
[2] = different tumor cell lines; background; cited from earlier work
[3] = Biological Activities of natural precursors (test not specified)
SK-BR3 [4] = assay: cells; details: Homo sapiens; for GI50: SK-BR-3, read-out: GI50 SK-BR3; for CC50: SK-BR-3, read-out: LC50 SK-BR3
IGROV-ET [5] = details: Ovary
K-562 [6] = assay: cells; details: Homo sapiens; for GI50: K562, read-out: GI50 K-562; for CC50: K562, read-out: LC50 K-562
SK-BR3 [7] = details: Breast
Bacillus subtilis = assay: Antimicrobial activity on solid medium, disk; type: cell-based; details: Bacillus subtilis, 10 μg/disk (6 mm diameter)
Experimental: Antimicrobial activity: On solid medium Bacillus subtilis. 10 μg/disk (6 mm diameter): 10 mm inhibition zone Spectroscopic Data: […]

HT29 [8] = assay: cells; details: Homo sapiens; for GI50: HT-29, read-out: GI50 HT29; for CC50: HT-29, read-out: LC50 HT29
DNA = assay: Secondary Screening, DNA Binding GEL; details: Secondary Evaluation
A549 [9] = details: NSCL
PANC1 [10] = assay: cells; details: Homo sapiens; for GI50: PANC-1, read-out: GI50 PANC1; for CC50: PANC-1, read-out: LC50 PANC1
LN-caP [11] = details: Prostate
DU-145 [12] = details: Prostate
PANC1 [13] = details: Pancreas
SK-MEL-28 [14] = assay: cells; details: Homo sapiens; for GI50: SK-MEL-28, read-out: GI50 SK-MEL-28; for CC50: SK-MEL-28, read-out: LC50 SK-MEL-28
DU-145 [15] = assay: cells; details: Homo sapiens; for GI50: DU-145, read-out: GI50 DU-145; for CC50: DU-145, read-out: LC50 DU-145
LN-caP [16] = assay: cells; details: Homo sapiens, LNCaP; for GI50: read-out: GI50 LN-caP; for CC50: read-out: LC50 LN-caP
A549 [17] = assay: cells; details: Homo sapiens; for GI50: A549, read-out: GI50 A549; for CC50: A549, read-out: LC50 A549
LOVO-DOX [18] = details: Colon
HELA [19] = details: Cervix
IGROV [20] = details: Ovary
Apoptosis (NUCLEOSOMES) = assay: Secondary Screening, Apoptosis NUCLEOSOMES; type: cell-based; details: Secondary Evaluation
IGROV-ET [21] = assay: cells; details: for GI50: read-out: GI50 IGROV-ET; for CC50: read-out: LC50 IGROV-ET
SK-MEL-28 [22] = details: Melanoma
DNA synthesis = assay: Secondary Screening, Macromolecules Synthesis DNA; type: cell-based; details: Secondary Evaluation
HELA [23] = assay: cells; details: Homo sapiens; for GI50: read-out: GI50 HELA; for CC50: read-out: LC50 HELA
LOVO [24] = details: Colon
HELA-APL [25] = assay: cells; details: for GI50: read-out: GI50 HELA-APL; for CC50: read-out: LC50 HELA-APL
K-562 [26] = details: Leukemia
RNA synthesis = assay: Secondary Screening, Macromolecules Synthesis RNA; type: cell-based; details: Secondary Evaluation
IGROV [27] = assay: cells; details: for GI50: read-out: GI50 IGROV; for CC50: read-out: LC50 IGROV
HT29 [28] = details: Colon
PROTEIN synthesis = assay: Secondary Screening, Macromolecules Synthesis PROTEIN; type: cell-based; details: Secondary Evaluation
LOVO-DOX [29] = assay: cells; details: for GI50: read-out: GI50 LOVO-DOX; for CC50: read-out: LC50 LOVO-DOX
HELA-APL [30] = details: Cervix
LOVO [31] = assay: cells; details: Homo sapiens; for GI50: read-out: GI50 LOVO; for CC50: read-out: LC50 LOVO

COC1=C(C)C(=O)C2=C(C1=O)[C@H](CNC(=O)[C@H](C)N)N1C[C@@H]3Cc4cc(C)c(OC)c(O)c4[C@H]([C@@H]1C2)N3C [Safracin A, reference compound]
antibacterial and antitumoral activities (in words) [1]: less antibiotic and antitumoral activity
antitumor and antibacterial activity (in words) [2]: possess antitumor activity in addition to antibacterial activity

COc1ccc(C[C@H](N)C(=O)O)cc1C [Safracin P-14, 3-methyl-O-methyltyrosine]
Biological Activities [3]: NO ACTIVE

COC1=C(C)C(=O)C2=C(C1=O)[C@H](CNC(=O)[C@H](C)N)N1[C@@H](O)[C@H]3Cc4cc(C)c(OC)c(O)c4[C@@H]([C@@H]1C2)N3C [Safracin B]
antitumor and antibacterial activity (in words) [2]: possess antitumor activity in addition to antibacterial activity

COc1c(C)cc(C[C@H](N)C(=O)O)cc1O [Safracin P-2, 3-hydroxy-5-methyl-O-methyltyrosine]
Biological Activities [3]: NO ACTIVE

CCOC1=C(C)C(=O)C2=C(C1=O)C(CNC(=O)C(C)N)N1C(O)C3Cc4cc(C)c(OCC)c(O)c4C(C1C2)N3C (centres unmarked) [Safracin B (OEt)]
GI50 (SK-BR3 [4]): 0.0482 µM
CC50 (SK-BR3 [4]): 1.02 µM
TGI IGROV-ET (IGROV-ET [5]): 1.19 µM
GI50 (K-562 [6]): 0.0397 µM
CC50 (K-562 [6]): 3.69 µM
TGI SK-BR3 (SK-BR3 [7]): 0.116 µM
zone of inhibition at 10 µg/disc (Bacillus subtilis): 17.5 mm
GI50 (HT29 [8]): 0.244 µM
CC50 (HT29 [8]): > 17.6 µM
IC50 (DNA): 17.6 µM
TGI A549 (A549 [9]): 1.16 µM
GI50 (PANC1 [10]): 0.649 µM
CC50 (PANC1 [10]): 13.5 µM
TGI LN-caP (LN-caP [11]): >17.6 µM
antibacterial and antitumoral activities (in words) [1]: as potent as the activities of safracin A and safracin B, respectively
TGI DU-145 (DU-145 [12]): 1.01 µM
TGI PANC1 (PANC1 [13]): 2.06 µM
GI50 (SK-MEL-28 [14]): 0.169 µM
CC50 (SK-MEL-28 [14]): 1.13 µM
GI50 (DU-145 [15]): 0.401 µM
CC50 (DU-145 [15]): 16 µM
GI50 (LN-caP [16]): 0.0484 µM
CC50 (LN-caP [16]): 0.828 µM
GI50 (A549 [17]): 0.501 µM
CC50 (A549 [17]): 5.66 µM
TGI LOVO-DOX (LOVO-DOX [18]): 9.88 µM
TGI HELA (HELA [19]): 0.315 µM
TGI IGROV (IGROV [20]): 0.0997 µM
IC50 (Apoptosis (NUCLEOSOMES)): 0.0528 µM
GI50 (IGROV-ET [21]): 0.682 µM
CC50 (IGROV-ET [21]): 6.37 µM
TGI SK-MEL-28 (SK-MEL-28 [22]): 0.44 µM
IC50 (DNA synthesis): 1.76 µM
GI50 (HELA [23]): 0.0892 µM
CC50 (HELA [23]): 1.35 µM
TGI LOVO (LOVO [24]): 1.09 µM
GI50 (HELA-APL [25]): 0.077 µM
CC50 (HELA-APL [25]): 0.976 µM
TGI K-562 (K-562 [26]): 0.108 µM
IC50 (RNA synthesis): 0.176 µM
GI50 (IGROV [27]): 0.0406 µM
CC50 (IGROV [27]): 4.27 µM
TGI HT29 (HT29 [28]): 1.39 µM
IC50 (PROTEIN synthesis): > 17.6 µM
GI50 (LOVO-DOX [29]): 2.09 µM
CC50 (LOVO-DOX [29]): > 17.6 µM
TGI HELA-APL (HELA-APL [30]): 0.274 µM
GI50 (LOVO [31]): 0.443 µM
CC50 (LOVO [31]): > 17.6 µM

CCOC1=C(C)C(=O)C2=C(C1=O)C(CNC(=O)C(C)N)N1CC3Cc4cc(C)c(OCC)c(O)c4C(C1C2)N3C (centres unmarked) [Safracin A (OEt)]
GI50 (SK-BR3 [4]): 0.555 µM
CC50 (SK-BR3 [4]): 5.57 µM
TGI IGROV-ET (IGROV-ET [5]): 5.1 µM
GI50 (K-562 [6]): 0.311 µM
CC50 (K-562 [6]): 1.51 µM
TGI SK-BR3 (SK-BR3 [7]): 1.16 µM
zone of inhibition at 10 µg/disc (Bacillus subtilis): 10 mm
GI50 (HT29 [8]): 1.97 µM
CC50 (HT29 [8]): 9.88 µM
TGI A549 (A549 [9]): 7.17 µM
GI50 (PANC1 [10]): 3.06 µM
CC50 (PANC1 [10]): 11.1 µM
TGI LN-caP (LN-caP [11]): 0.742 µM
antibacterial and antitumoral activities (in words) [1]: as potent as the activities of safracin A and safracin B, respectively
TGI DU-145 (DU-145 [12]): 5.39 µM
TGI PANC1 (PANC1 [13]): 5.83 µM
GI50 (SK-MEL-28 [14]): 0.796 µM
CC50 (SK-MEL-28 [14]): 5.77 µM
GI50 (DU-145 [15]): 2.64 µM
CC50 (DU-145 [15]): 11 µM
GI50 (LN-caP [16]): 0.378 µM
CC50 (LN-caP [16]): 1.45 µM
GI50 (A549 [17]): 4 µM
CC50 (A549 [17]): 12.8 µM
TGI LOVO-DOX (LOVO-DOX [18]): 9.84 µM
TGI HELA (HELA [19]): 2.91 µM
TGI IGROV (IGROV [20]): 0.928 µM
GI50 (IGROV-ET [21]): 2.01 µM
CC50 (IGROV-ET [21]): 13 µM
TGI SK-MEL-28 (SK-MEL-28 [22]): 1.9 µM
IC50 (DNA synthesis): 1.81 µM
GI50 (HELA [23]): 1.02 µM
CC50 (HELA [23]): 7.85 µM
TGI LOVO (LOVO [24]): 4.41 µM
GI50 (HELA-APL [25]): 0.764 µM
CC50 (HELA-APL [25]): 6.69 µM
TGI K-562 (K-562 [26]): 0.686 µM
GI50 (IGROV [27]): 0.492 µM
CC50 (IGROV [27]): 1.76 µM
TGI HT29 (HT29 [28]): 4.41 µM
IC50 (PROTEIN synthesis): 6.33 µM
GI50 (LOVO-DOX [29]): 5.72 µM
CC50 (LOVO-DOX [29]): 16.9 µM
TGI HELA-APL (HELA-APL [30]): 2.32 µM
GI50 (LOVO [31]): 2.03 µM
CC50 (LOVO [31]): 9.61 µM

COC1=C(C)C(=O)C2=C(C1=O)C(CNC(=O)C(C)N)N1C(O)C3Cc4cc(C)c(OC)c(O)c4C(N3)C1C2 (centres unmarked) [Safracin D]
GI50 (SK-BR3 [4]): 4.71 µM
CC50 (SK-BR3 [4]): 13 µM
TGI IGROV-ET (IGROV-ET [5]): 3.34 µM
GI50 (K-562 [6]): 0.604 µM
CC50 (K-562 [6]): 3.78 µM
TGI SK-BR3 (SK-BR3 [7]): 7.82 µM
zone of inhibition at 10 µg/disc (Bacillus subtilis): 15 mm
GI50 (HT29 [8]): 4.33 µM
CC50 (HT29 [8]): > 19 µM
IC50 (DNA): 6.65 µM
TGI A549 (A549 [9]): 10.7 µM
GI50 (PANC1 [10]): 4.77 µM
CC50 (PANC1 [10]): > 19 µM
TGI LN-caP (LN-caP [11]): 4.12 µM
antibacterial and antitumoral activities (in words) [1]: the same antibacterial and antitumoral activities as safracin B and safracin A, respectively
TGI DU-145 (DU-145 [12]): 9.99 µM
TGI PANC1 (PANC1 [13]): 11 µM
GI50 (SK-MEL-28 [14]): 3.51 µM
CC50 (SK-MEL-28 [14]): 11 µM
GI50 (DU-145 [15]): 5.22 µM
CC50 (DU-145 [15]): 19 µM
GI50 (LN-caP [16]): 1.54 µM
CC50 (LN-caP [16]): 9.78 µM
GI50 (A549 [17]): 6.04 µM
CC50 (A549 [17]): 18.8 µM
TGI LOVO-DOX (LOVO-DOX [18]): 8.85 µM
TGI HELA (HELA [19]): 6.68 µM
TGI IGROV (IGROV [20]): 6.02 µM
IC50 (Apoptosis (NUCLEOSOMES)): 2.85 µM
GI50 (IGROV-ET [21]): 1.33 µM
CC50 (IGROV-ET [21]): 9.15 µM
TGI SK-MEL-28 (SK-MEL-28 [22]): 6.21 µM
IC50 (DNA synthesis): 15.2 µM
GI50 (HELA [23]): 3.76 µM
CC50 (HELA [23]): 11.9 µM
TGI LOVO (LOVO [24]): 18.2 µM
GI50 (HELA-APL [25]): 2.28 µM
CC50 (HELA-APL [25]): 12.1 µM
TGI K-562 (K-562 [26]): 1.16 µM
IC50 (RNA synthesis): 3.8 µM
GI50 (IGROV [27]): 2.68 µM
CC50 (IGROV [27]): 13.5 µM
TGI HT29 (HT29 [28]): 17.9 µM
IC50 (PROTEIN synthesis): 19 µM
GI50 (LOVO-DOX [29]): 4.75 µM
CC50 (LOVO-DOX [29]): 16.5 µM
TGI HELA-APL (HELA-APL [30]): 5.24 µM
GI50 (LOVO [31]): 6.99 µM
CC50 (LOVO [31]): > 19 µM
